Measured values taken from ChEMBL document CHEMBL3988442, “University of Dundee, Small-Polar-MMV Screening Library” (2021).
Values joined by “and” are separate entries in the source; they are usually repeats but may differ in a detail not shown here. Identical values can stand only once.

How the values were obtained:
ClpP1P2 = ClpP1P2 (Mycobacterium tuberculosis (strain ATCC 25618 / H37Rv), UniProt P9WPC3+P9WPC5); experiment: in vitro assay to detect presence of AMC directly proportional to the activity of ClpP1P2. GHDDI collaboration.; assay type: functional
[1] = target: Sialic acid-binding Ig-like lectin 9 (Homo sapiens, UniProt Q9Y336); experiment: Hs-Siglec9 ALPHAscreen SOP 20170721
Plasmodium falciparum [2] = experiment: Plasmodium falciparum sporozoite viability assay; assay type: functional, organism-based; details: for IC50: Plasmodium falciparum
[3] = microbe, parasite or virus in culture; details: Mycobacterium tuberculosis, 96 h, read-out: pIC50 (converted)
[4] = microbe, parasite or virus in culture; details: Mycobacterium tuberculosis, 72 h, read-out: pIC50 (converted)
[5] = target: Polyketide synthase Pks13 (Mycobacterium tuberculosis (strain ATCC 25618 / H37Rv), UniProt I6X8D2); experiment: Mycobacterium tuberculosis Polyketide synthase 13 Thioesterase (PKS13); assay type: functional
[6] = In vitro enzyme assay to detect hydrolysis of chlorophenol red-beta-D-[…] directly proportional to the number of Toxoplasma stably expressing beta-galactosidase; assay type: functional, organism-based, Toxoplasma gondii; details: for IC50: Toxoplasma gondii
[7] = target: T1, Coenzyme A biosynthesis bifunctional protein CoaBC (Mycobacterium tuberculosis (strain ATCC 25618 / H37Rv), UniProt P9WNZ1); experiment: Biomol Green assay for MtCoaBC inhibitor, OD650 read; assay type: functional
T1 sequence (P9WNZ1 whole entry): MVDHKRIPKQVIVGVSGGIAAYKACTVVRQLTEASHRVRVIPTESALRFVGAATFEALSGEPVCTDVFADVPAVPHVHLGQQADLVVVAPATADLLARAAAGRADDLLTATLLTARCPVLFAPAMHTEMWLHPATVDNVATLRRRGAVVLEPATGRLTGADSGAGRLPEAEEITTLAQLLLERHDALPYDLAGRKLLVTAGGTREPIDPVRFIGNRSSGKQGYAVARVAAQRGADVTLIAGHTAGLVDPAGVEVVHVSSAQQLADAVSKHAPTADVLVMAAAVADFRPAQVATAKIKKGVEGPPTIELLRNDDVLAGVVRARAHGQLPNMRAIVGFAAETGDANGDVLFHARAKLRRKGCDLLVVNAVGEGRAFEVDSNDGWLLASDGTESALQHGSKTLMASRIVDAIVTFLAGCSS

Plasmodium falciparum [8] = experiment: Calibr Malaria Delayed Death Assay SOP; assay type: functional, organism-based
Lysine--tRNA ligase = Lysine--tRNA ligase (Plasmodium falciparum (isolate 3D7), UniProt Q8IDJ8); experiment: Pf-KRS-1 (Lysyl-RNA Synthetase-1, KRS-1, cytosolic KRS) from Plasmodium falciparum. Inhibitor assay, 384 well plate, luminescence read.; assay type: functional

SMILES: CC(C)N1CCCC(c2cc(C(F)(F)F)nc3nccn23)C1 (centres undefined)
- IC50 (ClpP1P2): > 100 µM
- IC50 [1]: > 30.2 µM

SMILES: Cc1ncsc1CN(C)Cc1cc2c(cc1OC(F)F)OCO2
- pIC50 (Plasmodium falciparum [2]): 5.624
- IC50 (Plasmodium falciparum [2]): 3.97 µM

SMILES: NC(=O)c1ccc(NC(=O)Cn2cc(I)cn2)cc1
- pIC50 (Plasmodium falciparum [2]): 5.308
- IC50 (Plasmodium falciparum [2]): 3.07 µM

SMILES: COc1cc(NC(=O)c2ccc(CN3CC[C@H](O)C3)cc2)cc(OC)c1
- pIC50 (Plasmodium falciparum [2]): 6.645
- IC50 (Plasmodium falciparum [2]): 0.175 µM

SMILES: CC(C)c1nc2c(n1C)CCN(Cc1nc(-c3ccoc3)no1)C2
- pIC50 (Plasmodium falciparum [2]): 5.631
- IC50 (Plasmodium falciparum [2]): 3.15 µM

SMILES: CCCc1cc(CNC2CCN(c3nc4ccccc4s3)CC2)on1
- pIC50 (Plasmodium falciparum [2]): 5.685
- IC50 (Plasmodium falciparum [2]): 1.84 µM

SMILES: CC(C)(C)c1cn2nc(N3CCCC(Cn4cncn4)C3)sc2n1 (centres undefined)
- pIC50 (Plasmodium falciparum [2]): 4.991
- IC50 (Plasmodium falciparum [2]): > 10.5 µM

SMILES: O[C@H]1CN(CCOc2ccc(F)cc2)CC[C@@]12CCCO2
- pIC50 (Plasmodium falciparum [2]): 5.66
- IC50 (Plasmodium falciparum [2]): 2.55 µM

SMILES: Clc1ccc2nc(N3CCC(NCCCC4CCOC4)CC3)sc2c1 (centres undefined)
- pIC50 (Plasmodium falciparum [2]): 5.724
- IC50 (Plasmodium falciparum [2]): 3.77 µM

SMILES: OCC1CCCN1c1cc(NCCc2ccccn2)ncn1 (centres undefined)
- pIC50 (Plasmodium falciparum [2]): 7.276
- IC50 (Plasmodium falciparum [2]): 0.0517 µM

SMILES: COc1cccc(-c2noc(C3CCN(Cc4cn(C)nc4C)C3)n2)c1 (centres undefined)
- pIC50 (Plasmodium falciparum [2]): 5.995
- IC50 (Plasmodium falciparum [2]): 0.863 µM

SMILES: FC(F)(F)c1cc(C2CCCN(c3cnccn3)C2)n2ccnc2n1 (centres undefined)
- IC50 (ClpP1P2): > 100 µM
- IC50 [1]: > 30.2 µM

SMILES: COc1cc(C)sc1C(=O)N1CCC(Nc2cccnc2)CC1
- IC50 [3]: > 50.1 µM
- IC50 [4]: > 50.1 µM
- IC50 [1]: > 30.2 µM

SMILES: Cc1ccc(Nc2nccc(C3CCCN(CC(=O)N(C)C)C3)n2)nc1 (centres undefined)
- pIC50 (Plasmodium falciparum [2]): 5.724
- IC50 (Plasmodium falciparum [2]): 2.68 µM

SMILES: CN(C)CCNc1ccc(-c2nc(-c3ccccc3F)no2)cn1
- pIC50 (Plasmodium falciparum [2]): 7.212 and 6.908

SMILES: COCCN(C)c1ccc(NCc2cscn2)nc1
- pIC50 (Plasmodium falciparum [2]): 6.387
- IC50 (Plasmodium falciparum [2]): 0.391 µM

SMILES: CNc1cc(C)nc(N2C[C@@H](C(=O)O)[C@H](C3CC3)C2)n1
- pIC50 (Plasmodium falciparum [2]): 5.907
- IC50 (Plasmodium falciparum [2]): 0.989 µM

SMILES: Cn1cnc2c1CCN(Cc1csc(-c3ccccc3F)n1)C2
- pIC50 (Plasmodium falciparum [2]): 6.45
- IC50 (Plasmodium falciparum [2]): 0.363 µM

SMILES: OCC1CCCN1c1cc(NCCc2ccsc2)ncn1 (centres undefined)
- pIC50 (Plasmodium falciparum [2]): 7.515
- IC50 (Plasmodium falciparum [2]): 0.0596 µM

SMILES: Cn1cnnc1C1CCN(C(=O)CCCOc2ccccc2F)CC1
- pIC50 (Plasmodium falciparum [2]): 6.053
- IC50 (Plasmodium falciparum [2]): 1.3 µM

SMILES: Cc1cc(C(=O)NCc2cc(C)oc2C)no1
- IC50 [1]: > 30.2 µM
- IC50 [5]: > 100 µM

SMILES: CC(C)C(=O)N1CCN(Cc2csc(-c3ccccn3)n2)CC1
- pIC50 (Plasmodium falciparum [2]): 5.915
- IC50 (Plasmodium falciparum [2]): 0.965 µM

SMILES: Cc1ccc(Nc2nccc(C3CCN(CC(N)=O)C3)n2)nc1 (centres undefined)
- pIC50 (Plasmodium falciparum [2]): 7.48
- IC50 (Plasmodium falciparum [2]): 0.021 µM

SMILES: c1ccc(-c2nc(CN3CCc4c(ncn4C4CC4)C3)cs2)cc1
- pIC50 (Plasmodium falciparum [2]): 5.414
- IC50 (Plasmodium falciparum [2]): 2.99 µM

SMILES: CCn1cc(C(=O)N2CCOC(c3nc(-c4cccs4)no3)C2)cn1 (centres undefined)
- pIC50 (Plasmodium falciparum [2]): 5.925 and 5.539

SMILES: CCC(CC)c1nnc(NC(=O)N2CCCC(NC(C)=O)C2)s1 (centres undefined)
- pIC50 (Plasmodium falciparum [2]): 5.262 and 5.718

SMILES: Cc1ccnc(NC(=O)CSCc2cccnc2)c1
- pIC50 (Plasmodium falciparum [2]): 7.141 and 6.819

SMILES: Cc1cccc(C(=O)Nc2ccc(OC3CCN(C)CC3)cc2)c1
- pIC50 (Plasmodium falciparum [2]): 7.031
- IC50 (Plasmodium falciparum [2]): 0.119 µM

SMILES: CCc1n[nH]c(C(=O)NCCn2nccc2C)c1C
- IC50 (Plasmodium falciparum [2]): > 10.5 µM

SMILES: Cc1cc(NC(=O)c2ccc(CN3CC[C@H](O)C3)cc2)ccc1F
- pIC50 (Plasmodium falciparum [2]): 7.801
- IC50 (Plasmodium falciparum [2]): 0.0152 µM

SMILES: COc1c(C(=O)NCC2CCCO2)nnn1Cc1ccccc1 (centres undefined)
- IC50 [6]: > 50.1 µM
- IC50 [1]: > 30.2 µM

SMILES: COCC1CN(Cc2ccsc2)Cc2cnn(C)c21 (centres undefined)
- IC50 [7]: > 30.2 µM
- IC50 [1]: > 30.2 µM

SMILES: COc1c(C(=O)NCC(C)C)nnn1Cc1ccccc1
- IC50 [6]: > 50.1 µM
- IC50 [1]: > 30.2 µM

SMILES: COc1c(C(=O)NCc2cccnc2)nnn1Cc1ccccc1
- IC50 [6]: > 50.1 µM
- IC50 [1]: > 30.2 µM

SMILES: O=C1Nc2ccccc2CN(CC2CCCC2)C12CCNC2 (centres undefined)
- IC50 [3]: > 50.1 µM
- IC50 [4]: 22.7 µM
- IC50 [1]: > 30.2 µM

SMILES: CN1CC2(CCN(Cc3ccoc3)CC2)COc2ccccc2S1(=O)=O.O=C(O)C(F)(F)F
- IC50 [1]: > 30.2 µM
- pIC50 (Plasmodium falciparum [8]): 5.92
- IC50 (Plasmodium falciparum [8]; Plasmodium falciparum): 0.906 µM

SMILES: Cn1ncc2c1C(COCC1CC1)CN(Cc1ccsc1)C2 (centres undefined)
- IC50 [3]: > 50.1 µM
- IC50 [1]: > 30.2 µM

SMILES: c1cnc(N2CCC3(CCN(CC4CCOC4)CC3)CC2)nc1 (centres undefined)
- IC50 [1]: > 30.2 µM
- IC50 (Lysine--tRNA ligase): > 50.1 µM

SMILES: O=C1Nc2ccccc2CN(C/C=C/c2ccccc2)C12CCNC2 (centres undefined)
- pIC50 [6]: 4.701
- IC50 [6]: 15 µM
- IC50 [1]: > 30.2 µM

SMILES: CCn1ncc2c1C(COC)CN(Cc1ccc(OC)cc1)C2 (centres undefined)
- IC50 [1]: > 30.2 µM

SMILES: COc1c(C(=O)NCc2cnn(C)c2C)nnn1Cc1ccccc1
- IC50 [6]: > 50.1 µM
- IC50 [1]: > 30.2 µM

SMILES: CCn1ncc2c1C(COC)CN(Cc1ccc(F)cc1)C2 (centres undefined)
- IC50 [1]: > 30.2 µM

SMILES: FC(F)(F)CCc1ccnc(NCc2csc(N3CCOCC3)n2)n1
- IC50 [1]: > 30.2 µM

SMILES: Cc1nc(COC[C@]23COC[C@H]2CN(Cc2ccoc2)C3)cs1
- IC50 [1]: > 30.2 µM

SMILES: CCn1ncc2c1C(COC)CN(Cc1nccs1)C2 (centres undefined)
- IC50 [1]: > 30.2 µM
